The IC50 is the midpoint of a concentration-inhibition curve. The low end stands for inhibition by little substance, the high end for a need for much substance.

We go through 8 compounds from patent publication US6620820B2, “Inhibitors of bone reabsorption and antagonists of vitronectin receptors” (Hoechst Aktiengesellschaft, priority 1996, dated 2003).

Experiment [1] deals with T1, human vitronectin receptor (VnR) αVβ3 (Homo sapiens, UniProt P05106+P06756).
T1 construct: Human vitronectin receptor is isolated from the human placenta using the method of Pytela et al; from tissue; host or cells: human placenta (alternatively 293 cells cotransfected with αV and β3 DNA)
T1 sequence (P06756 31-889 limits assumed): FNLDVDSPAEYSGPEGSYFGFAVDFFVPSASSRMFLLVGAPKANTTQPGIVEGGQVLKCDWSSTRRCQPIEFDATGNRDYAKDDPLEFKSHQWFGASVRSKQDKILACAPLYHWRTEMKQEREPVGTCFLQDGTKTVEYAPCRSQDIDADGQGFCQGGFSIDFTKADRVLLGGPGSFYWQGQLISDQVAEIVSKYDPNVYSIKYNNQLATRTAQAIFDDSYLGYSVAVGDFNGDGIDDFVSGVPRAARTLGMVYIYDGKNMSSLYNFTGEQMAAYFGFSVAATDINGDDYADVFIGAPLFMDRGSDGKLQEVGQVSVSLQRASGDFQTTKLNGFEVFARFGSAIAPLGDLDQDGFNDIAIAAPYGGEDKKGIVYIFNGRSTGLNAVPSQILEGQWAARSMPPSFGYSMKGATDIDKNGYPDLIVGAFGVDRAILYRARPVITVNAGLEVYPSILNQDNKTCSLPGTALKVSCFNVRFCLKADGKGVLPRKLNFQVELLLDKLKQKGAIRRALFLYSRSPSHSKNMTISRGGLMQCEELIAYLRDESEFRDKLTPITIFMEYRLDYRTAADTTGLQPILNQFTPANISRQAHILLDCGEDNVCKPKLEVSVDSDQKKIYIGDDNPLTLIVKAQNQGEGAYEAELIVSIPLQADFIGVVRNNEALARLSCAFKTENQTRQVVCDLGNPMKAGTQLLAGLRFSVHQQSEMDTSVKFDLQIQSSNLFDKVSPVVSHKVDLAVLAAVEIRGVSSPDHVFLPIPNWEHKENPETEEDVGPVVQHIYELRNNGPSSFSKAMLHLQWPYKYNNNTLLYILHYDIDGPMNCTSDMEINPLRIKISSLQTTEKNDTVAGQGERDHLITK
T1 sequence (P06756 891-1048 partner limits assumed): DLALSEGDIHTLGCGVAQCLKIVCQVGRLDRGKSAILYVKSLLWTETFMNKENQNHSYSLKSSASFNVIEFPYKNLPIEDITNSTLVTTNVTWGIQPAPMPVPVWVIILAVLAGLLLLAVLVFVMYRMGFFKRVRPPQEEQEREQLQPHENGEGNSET
T1 sequence (P05106 27-788): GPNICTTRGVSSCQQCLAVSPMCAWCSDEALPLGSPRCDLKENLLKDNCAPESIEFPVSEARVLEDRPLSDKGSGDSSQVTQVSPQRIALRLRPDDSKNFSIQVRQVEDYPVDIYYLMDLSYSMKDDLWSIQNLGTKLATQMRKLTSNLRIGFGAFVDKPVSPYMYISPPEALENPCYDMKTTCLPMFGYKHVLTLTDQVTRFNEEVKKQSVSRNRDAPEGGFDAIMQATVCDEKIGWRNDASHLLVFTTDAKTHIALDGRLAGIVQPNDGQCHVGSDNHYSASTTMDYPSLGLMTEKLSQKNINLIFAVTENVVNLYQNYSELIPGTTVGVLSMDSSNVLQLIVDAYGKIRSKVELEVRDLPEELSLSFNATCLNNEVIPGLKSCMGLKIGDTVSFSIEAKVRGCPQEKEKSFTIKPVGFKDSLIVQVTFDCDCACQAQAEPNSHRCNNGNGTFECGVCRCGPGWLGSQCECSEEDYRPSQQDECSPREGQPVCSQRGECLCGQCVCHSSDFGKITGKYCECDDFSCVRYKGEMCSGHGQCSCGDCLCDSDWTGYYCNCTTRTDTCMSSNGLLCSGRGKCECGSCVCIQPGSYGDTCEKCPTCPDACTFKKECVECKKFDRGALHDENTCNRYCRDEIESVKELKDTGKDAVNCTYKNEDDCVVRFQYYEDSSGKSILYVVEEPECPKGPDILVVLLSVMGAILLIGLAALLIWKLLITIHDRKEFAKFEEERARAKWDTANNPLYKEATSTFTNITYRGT
Briefly: Inhibition of the binding of Kistrin to human vitronectin receptor (VnR) αVβ3: ELISA test (Kistrin/VnR). As to conditions: plates coated with Kistrin, test method 2. The procedure:
Nunc Maxisorb 96-well microtiter plates are coated, at 4° C. overnight, with a solution of human vitronectin (0.002 mg/ml, 0.05 ml/well) in PBS (phosphate-buffered sodium chloride solution). The plates are washed twice with PBS/0.05% Tween 20 and blocked by incubating them (for 60 min) with bovine serum albumin (BSA, 0.5%, RIA grade or better) in tris-HCl (50 mM), NaCl (100 mM), MgCl2 (1 mM), CaCl2 (1 mM), MnCl2 (1 mM), pH 7. Solutions of known inhibitors and of the test substances, in concentrations of 2×10^−12−2×10^−6 mol/l, are prepared in assay buffer [BSA (0.5%, RIA grade or better) in tris-HCl (50 mM/l), NaCl (100 mM), MgCl2 (1 mM), CaCl2 (1 mM), MnCl2 (1 mM), pH 7]. The blocked plates are emptied and in each case 0.025 ml of this solution, which contains a defined concentration (from 2×10^−12 to 2×10^−6) of either a known inhibitor or a test substance, is added to each well. 0.025 ml of a solution of the vitronectin receptor in the test buffer (0.03 mg/ml) is pipetted into each well of the plate and the plate is then incubated at room temperature on a shaker for 60-180 min. In the meantime, a solution (6 ml/plate) of a murine monoclonal antibody which is specific for the β3 subunit of the vitronectin receptor is prepared in the assay buffer (0.0015 mg/ml). A second rabbit antibody, which represents an anti-mouse Fc HRP antibody conjugate, is added to this solution (0.001 ml of stock solution/6 ml of the murine mono-clonal anti-β3 antibody solution) and this mixture of the murine anti-β3 antibody and the rabbit anti-mouse Fc HRP antibody conjugate is allowed to incubate while the receptor/inhibitor incubation is in progress. The test plates are washed 4 times with PBS solution containing 0.05% Tween-20 and 0.05 ml of the antibody mixture is in each case pipetted into each well of the plate, which is then incubated for 60-180 min. The plate is washed 4 times with PBS/0.05% Tween-20 and then developed with 0.05 ml/well of a PBS solution which contains 0.67 mg/ml o-phenylenediamine and 0.012% H2O2. Alternatively, o-phenylenediamine can be used in a buffer (pH 5) which contains Na3PO4 (50 mM) and citric acid (0.22 mM). The color development is stopped with 1N H2SO4 (0.05 ml/well). The absorption of each well is measured at 492-405 nm and the data are evaluated using standard methods.
Inhibition of the binding of Kistrin to human vitronectin receptor (VnR) αVβ3: ELISA test
(In the listing of the test results, test method 2 is abbreviated to Kistrin/VnR)
1. Purification of Kistrin
Kistrin is purified using the methods of Dennis et al., as described in Proc. Natl. Acad. Sci. USA 1989, 87, 2471-2475 and PROTEINS: Structure, Function and Genetics 1993, 15, 312-321.
2. Purification of human vitronectin receptor (αVβ3) see test method 1.
3. Monoclonal antibodies see test method 1.
The ability of substances to inhibit the binding of Kistrin to the vitronectin receptor can be elucidated using an ELISA test. For this purpose, Nunc 96-well microtiter plates are coated with a solution of Kistrin (0.002 mg/ml) in accordance with the method of Dennis et al., as described in PROTEINS: Structure, Function and Genetics 1993, 15, 312-321. The subsequent experimental implementation of the ELISA test is as described in test method1, item 4.
On the technique in general: In an ELISA, binding on a coated surface is turned into a signal by an enzyme label.

Experiment [2] deals with T1, human vitronectin receptor (VnR) αVβ3. Briefly: Inhibition of the binding of human vitronectin (Vn) to human vitronectin receptor (VnR) αVβ3: ELISA test (Vn/VnR). As to conditions: plates coated with human vitronectin, test method 1. The source says:
Inhibition of the binding of human vitronectin (Vn) to human vitronectin receptor (VnR) αVβ3: ELISA-Test.
(In the listing of the test results, test method 1 is abbreviated to Vn/VnR)
1. Purification of human vitronectin
Human vitronectin is isolated from human plasma and purified by affinity chromatography using the method of Yatohyo et al., Cell Structure and Function, 1988, 23, 281-292.
2. Purification of human vitronectin receptor (αVβ3)
Human vitronectin receptor is isolated from the human placenta using the method of Pytela et al., Methods Enzymol. 1987, 144, 475. Human vitronectin receptor αVβ3 can also be isolated from some cell lines (for example from 293 cells, a human embryonic kidney cell line) which are cotransfected with DNA sequences for the two subunits, αV and β3, of the vitronectin receptor. The subunits are extracted with octylglycoside and subsequently chromatographed on concanavalin A, heparin-Sepharose and S-300. […]
Nunc Maxisorb 96-well microtiter plates are coated, at 4° C. overnight, with a solution of human vitronectin (0.002 mg/ml, 0.05 ml/well) in PBS (phosphate-buffered sodium chloride solution). […] The absorption of each well is measured at 492-405 nm and the data are evaluated using standard methods.

In turn, `N=C(N)NC(=O)CC[C@@H]1NC(=O)N(CC(=O)NC[C@H](NC(=O)OCc2ccccc2)C(=O)O)C1=O` [Example 19, (2S)-Benzyloxycarbonylamino-3-[2-((4S)-(3-guanidino-3-oxopropyl) -2,5-dioxoimidazolidin-1-yl)acetylamino]propionic Acid] came in with a 50% inhibitory concentration (IC50) in experiment [1] of 20 nM.

Take `O=C(CN1C(=O)N[C@@H](CCCNc2ncccn2)C1=O)NC[C@H](NC(=O)OCc1ccccc1)C(=O)O` [Example 4, (2S)-Benzyloxycarbonylamino-3-[((4S)-(3-(2-pyrimidylamino)propyl)-2,5-dioxoimidazolidin-1-yl)acetylamino]propionic Acid]: the half-maximal inhibitory concentration (IC50) in experiment [1] was found to be 1660 nM.

In turn, `O=C(CN1C(=O)N[C@@H](CCCNc2nc3ccccc3[nH]2)C1=O)NC[C@H](NC(=O)OCc1ccccc1)C(=O)O` [Example 5, (2S)-Benzyloxycarbonylamino-3-[((4S)-(3-(benzimidazolyl-2-amino)-propyl)-2,5-dioxoimidazolidin-1-yl)acetylamino]propionic Acid] registered an IC50 in experiment [1] of 40 nM.

In experiment [1], `O=C(CN1C(=O)N[C@@H](CCc2nc3ccccc3[nH]2)C1=O)NC[C@H](NC(=O)OCc1ccccc1)C(=O)O` [Example 18] had an IC50 of 810 nM.

On to `N=C(N)NC(=O)NC[C@@H]1NC(=O)N(CC(=O)NC[C@H](NC(=O)OCc2ccccc2)C(=O)O)C1=O` [Example 3, (2S)-Benzyloxycarbonylamino-3-[((4S)-(guanidinoacylaminomethyl)-2,5-dioxoimidazolidin-1-yl)acetylamino]propionic Acid], for which the IC50 in experiment [1] came to 360 nM.

Take `O=C(CN1C(=O)N[C@@H](CC(=O)NNC2=NCCCN2)C1=O)NC[C@H](NC(=O)OCc1ccccc1)C(=O)O` [Example 8, (2S)-Benzyloxycarbonylamino-3-[2-(2,5-dioxo-(4S)-(N′-(1,4,5,6-tetrahydro-pyrimidin-2-yl)hydrazinocarbonylmethyl)imidazolidin-1-yl)acetylamino]propionic Acid]: the IC50 in experiment [1] amounted to 130 nM.

As for `O=C(CN1C(=O)N[C@@H](CC(=O)NNC2=NCCN2)C1=O)NC[C@H](NC(=O)OCc1ccccc1)C(=O)O` [Example 7, (2S)-Benzyloxycarbonylamino-3-[2-((4S)-(N′-(4,5-dihydro-1H-imidazol-2-yl)-hydrazinocarbonylmethyl]-2,5-dioxoimidazolidin-1-yl)acetylamino]propionic Acid], the half-maximal inhibitory concentration (IC50) in experiment [1] is 580 nM.

As to `O=C(CN1C(=O)N[C@@H](CCCNC2=NCCN2)C1=O)NC[C@H](NC(=O)OCc1ccccc1)C(=O)O` [Example 1, (2S)-Benzoylcarbonylamino-3-[2-((4S)-(3-(4,5dihydro-1H-imidazol-2-ylamino)propyl)-2,5-dioxoimidazolidin-1-yl)acetylamino]propionic Acid], the results for the IC50 in experiment [2] and in experiment [1] were 8 nM and 20 nM, respectively.
